Measurements: patent US20030134848A1, “Substituted 1-aza-2-imino-heterocycles and their use as nicotinic acetylcholin receptors activators” (priority 2000, published 2003)

Molecular target: T1, human α4β2 subtype of nicotinic acetylcholine receptors (Homo sapiens, UniProt P17787+P43681)
T1 construct: expressed in transfected cells; host or cells: Xenopus laevis oocytes injected with hnACh-R α4 and β2 cRNA (pSP64 polyA vector)
Assay: Agonist activity at human α4β2 nicotinic acetylcholine receptors expressed in Xenopus oocytes (membrane potential holding method)
Type: cell-based
Settings: for EC50: Xenopus oocytes, held at −50 mV, peak inward current, read-out: Agonist activity (ED50); for control % by response at 100 μM of the test compounds: 100 μM test compound vs response at 10 μM acetylcholine (100%)
Procedure: The agonist effect in human α4β2 subtype of nicotinic acetylcholine receptors are examined by using human nicotinic acetylcholine receptors prepared in oocytes of Xenopus laevis, which is injected with cRNA from the corresponding cloning cDNA of human α4 and β2 subunits of nicotinic acetylcholine receptors, and to measure the expression of the electric response by adding the test compounds to perfusion solution by means of membrane potential holding method.
The agonist activities of the compounds of the present invention at human 4β2 subtype of nicotinic acetylcholine receptors was evaluated by the following method, which was modified method described by Papke R. L., Thinschmidt J. S., Moulton B. A., Meyer E. M. & Poirier A., Br. J. Pharmacol., 120, 429-438 (1997).
(1) Preparation of cRNA of Human α4β2 Subtype of Nicotinic Acetylcholine Receptors
The cloning of human nicotinic acetylcholine receptor (hnACh-R) α4 cDNA and hnAC-R β2 cDNA were performed, in accordance with the conventional manners, by synthesizing the each DNA primers corresponding to the sequences of hnACh-R α4 cDNA and hnACh-R β2 cDNA [Monteggia L. M. et al., Gene, 155, 189-193 (1995); and Anand R., & Lindstrom J., Nucl. Acids Res., 18, 4272 (1990)], and obtained hnACh-R α4 cDNA and hnACh-R β2 cDNA by polymerase chain reaction (PCR), respectively. The obtained hnACh-R α4 cDNA and hnACh-R β2 cDNA were inserted to the cRNA expression vector (pSP64 polyA) having SP6 RNA promoter to construct hnACh-R α4/pSP64 polyA and hnACh-R β2/pSP64 polyA, respectively. After cutting from expression vector by restriction enzyme (EcoRI), transcription was performed by affecting SP6 RNA polymerase in the presence of cap analogues to obtain hnACh-R α4 cRNA and hnACh-R β2 cRNA, respectively.
(2) Expression of Human α4β2 Subtype Nicotinic Acetylcholine Receptors in Xenopus oocytes
Oocytes were purchased from Kitanihonseibutsukyohzai Co., Ltd., which were already enucleated from Xenopus laevis, and used in this experiment.
The oocytes were treated with collagenase (Sigma type I; 1 mg/ml) in calcium-free modified Birth's solution (88 mM of NaCl, 1 mM of KCl, 2.4 mM of NaHCO3, 0.82 mM of MgSO4, 15 mM of HEPES, pH 7.6) under gently stirring at room temperature for 90 minutes, and washed out the enzyme from the tissue. Then, oocytes were separated from ovarian follicle by tweezers, and isolated oocytes were placed in antibiotics containing modified Birth's solution (88 mM of NaCl, 1 mM of KCl, 2.4 mM of NaHCO3, 0.82 mM of MgSO4, 15 mM of HEPES, pH 7.6, and 0.1 v/v % of mixture solution containing of penicillin and streptomycin for incubation; Sigma Co.). […] In oocytes, heterogeneous quintuple [(α4)2(β2)3] was composed by translation of injected cRNAs, and ion channel receptors were constructed on cell membrane.
(3) Agonist Activities at Human α4β2 Subtype of Nicotinic Acetylcholine Receptors
The recordings of responses at human α4β2 subtype of nicotinic acetylcholine receptors by means of membrane potential holding method were performed as follow. […] The membrane electric potentials were held at −50 mV by mean of the two electric membranes potential holding method (CEZ-1250; Nihon Kohden Co.). Test compounds were added to the perfusion solution, and recorded the peak strength of induced inward current. In order to normalize the responses of test compounds, the responses with acetylcholine (Ach) were recorded before and after application of the test compounds. Generally in the oocytes just after isolated, the response of intrinsic muscarinic acetylcholine receptors, which is inward electric current caused by activation of calcium dependence chloride ion channels with increase of the intracellular calcium concentration by stimulation of receptors, is observed.

T1 sequence (P43681 29-627 limits assumed): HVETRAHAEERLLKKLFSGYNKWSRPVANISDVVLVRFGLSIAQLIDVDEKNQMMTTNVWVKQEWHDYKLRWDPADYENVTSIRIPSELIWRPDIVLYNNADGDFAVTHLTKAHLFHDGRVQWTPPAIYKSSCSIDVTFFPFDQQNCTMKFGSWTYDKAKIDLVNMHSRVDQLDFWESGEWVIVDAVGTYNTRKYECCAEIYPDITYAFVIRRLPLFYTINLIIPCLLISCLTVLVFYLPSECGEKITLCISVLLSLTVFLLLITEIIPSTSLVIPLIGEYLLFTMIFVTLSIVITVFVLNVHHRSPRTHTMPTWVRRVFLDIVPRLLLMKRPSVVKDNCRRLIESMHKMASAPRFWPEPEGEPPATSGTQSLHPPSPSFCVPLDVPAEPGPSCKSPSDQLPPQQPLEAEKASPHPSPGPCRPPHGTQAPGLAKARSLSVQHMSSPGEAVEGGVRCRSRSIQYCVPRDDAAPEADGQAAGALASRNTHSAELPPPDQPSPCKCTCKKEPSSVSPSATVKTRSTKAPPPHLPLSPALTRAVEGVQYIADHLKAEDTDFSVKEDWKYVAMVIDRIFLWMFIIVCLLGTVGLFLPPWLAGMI
T1 sequence (P17787 26-502): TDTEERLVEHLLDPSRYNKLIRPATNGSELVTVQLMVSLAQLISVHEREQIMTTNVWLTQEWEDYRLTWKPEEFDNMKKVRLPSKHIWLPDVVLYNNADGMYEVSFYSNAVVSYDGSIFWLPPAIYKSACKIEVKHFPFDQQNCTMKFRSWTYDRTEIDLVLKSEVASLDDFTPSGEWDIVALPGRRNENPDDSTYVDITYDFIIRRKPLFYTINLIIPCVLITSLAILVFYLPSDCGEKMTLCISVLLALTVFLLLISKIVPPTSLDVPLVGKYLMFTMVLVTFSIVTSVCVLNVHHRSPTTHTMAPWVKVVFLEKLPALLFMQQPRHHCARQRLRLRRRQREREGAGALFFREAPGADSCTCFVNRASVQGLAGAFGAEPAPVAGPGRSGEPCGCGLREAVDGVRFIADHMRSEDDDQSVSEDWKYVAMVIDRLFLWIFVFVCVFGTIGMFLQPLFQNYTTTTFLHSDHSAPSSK

Structure (SMILES)	EC50	control % by response at 100 μM of the test compounds
Nc1nccn1CCc1cnc(Cl)s1 [Compound 23, 2-amino-1-[2-(2-chloro-5-thiazolyl)ethyl]imidazole]	13 µM	–
Nc1nccn1CCc1cnccn1 [Compound 31, 2-amino-1-[2-(2-pyrazinyl)ethyl]imidazole]	–	(15%)
Cc1ccc(CCn2ccnc2N)cn1 [Compound 11, 2-amino-1-[2-(6-methyl-3-pyridyl)ethyl]imidazole]	7.5 µM	–
Nc1nccn1CCc1cccnc1 [Compound 14, 2-amino-1-[2-(3-pyridyl)ethyl]imidazole]	2 µM	–
Nc1nccn1CCc1ccnnc1 [Compound 34, 2-amino-1-[2-(4-pyridazinyl)ethyl]imidazole]	170 µM	–
Cc1cncc(CCn2ccnc2N)c1 [Compound 27, 2-amino-1-[2-(5-methyl-3-pyridyl)ethyl]imidazole]	6.2 µM	–
Nc1nccn1CCc1cncc(Br)c1 [Compound 25, 2-amino-1-[2-(5-bromo-3-pyridyl)ethyl]imidazole]	3 µM	–
N=C1NCCCN1CCc1ccc(Cl)nc1 [Compound 12, 1-[2-(6-chloro-3-pyridyl)ethyl]-2-imino-1,2,3,4,5,6-hexahydro-pyrimidine]	–	(8%)
Nc1nccn1CCc1cncnc1 [Compound 29, 2-amino-1-[2-(5-pyrimidyl)ethyl]imidazole]	3.7 µM	–
Nc1nccn1CCc1cccnn1 [Compound 30, 2-amino-1-[2-(3-pyridazinyl)ethyl]imidazole]	46 µM	–
Nc1nccn1CCc1cnc(Cl)c(Cl)c1 [Compound 13, 2-amino-1-[2-(5,6-dichloro-3-pyridyl)ethyl]-imidazole]	2.4 µM	–
